Test results reported in patent US8648099B2 (Hoffmann-La Roche Inc., priority 2011, dated 2014).
Like-named read-outs stand apart in the source and are kept apart here.

Legend:
[1] = tested on: ABCA1 protein; experiment: Detection of upregulation of ABCA1 protein in cells (ApoA-I binding, high content imaging); assay type: cell-based; conditions: THP-1 macrophage cells; for EC50: 24 hrs compound incubation, read-out: EC50 [μM] ABCA1 protein increasing efficacy; for % increase of ABCA1 at 3 μM: compound at 3 μM, 24 hrs
Experimental: The ability of compounds of the invention to increase the level of ABCA1 protein is determined in replicate cultures of THP-1 macrophage cells in 96-well microplates. Cells are plated at an initial density of 100,000 cells/well in 100 μl medium and differentiated to adherent macrophages with the addition of PMA (100 nM) for 68 hrs in 10% fetal bovine serum, 3 μl/L of b-mercaptoethanol, RPMI-1640 medium. Then, cells are incubated with RPMI-1640 medium containing 1% FCS, 25 μg/ml acetylated LDL, for 24 hours at 37° C. Following incubation with acetylated LDL, cells are washed twice with 50 μl PBS and incubated with 100 μl of RPMI-1640 medium containing the compound of interest solubilized in DMSO for an additional 24 hrs. The final DMSO concentration in presence of cells is maintained at 0.5%. ApoA-I binding assay using High Content Image Analysis is initiated by replacing with fresh medium, RPMI without Phenol Red, 0.2% BSA containing AlexaFluor®647 labeled ApoA-I for 2 h/37° C./5% CO2. Then, cells are fixed with 4% Formaldehyde in PBS (15 min, RT). Following Nuclei are stained with Hoechst solution (3 μM PBS) and Cytoplasm with Cell Mask Blue (2 μg/ml PBS), 15 min, RT. Finally the stained cells are fixed with a second round of formaldehyde treatment. Fixed stained cells are washed and kept in PBS at 4° C. and can be read immediately until one month after preparation.
The Alexa Fluor 647-labeled Apolipoprotein A-I (20 nM) was prepared as follows: Human recombinant Apolipoprotein A-I (ApoA-I) was exchanged to a buffer of 0.02 M NaHCO3 at pH 8.2 on an NAP desalting column (GE Healthcare) and brought to a concentration to 40 μM (1.13 mg/ml) by adjustment with the same buffer. The ApoA-I was fluorescently labeled by incubation with Alexa Fluor carboxylic acid succimidyl ester (Alexa Fluor 647, Invitrogen A-20006) at a 2:1 molar ratio (Alexa to ApoA-I) for 1 h under shaking at RT. The remaining unconjugated label was removed by buffer exchange to 0.02M NaHCO3 at pH 8.2.
Imaging and data collection were performed on an OPERA confocal microplate imaging reader using a 20× water immersion objective and UV360 or 405 laser to identify the cell nuclei and a 635 laser to identify the fluorescent ApoA-I. Eight fields of view are captured per well. Image capture and analysis was performed with the Acapella software. Background fluorescence detected in control wells without ApoA-I was subtracted.
Using XLfit3 program (ID Business Solutions Ltd. UK), the model 205 for Dose Response One Site is used to calculate the EC50 values. […] More particularly, the compounds of the present invention have EC50 values in a range of 0.1 μM to 3 μm.

[2] = target: T1, human CB1 receptor (Homo sapiens, UniProt P21554); experiment: CB1 receptor affinity ([3H]-CP-55,940 displacement, HEK cell membranes); assay type: binding; conditions: read-out: CB1 receptor affinity [% inhibition @ 10 μM]
T1 construct: expressed in transfected cells; host or cells: human embryonic kidney (HEK) cells, Semliki Forest Virus system, membrane preparations
Experimental: (§1) The affinity of the compounds of the invention for cannabinoid receptors was determined using membrane preparations of human embryonic kidney (HEK) cells in which the human CB1 receptor is transiently transfected using a Semliki Forest Virus system in conjunction with [3H]-CP-55,940 as radioligand. After incubation of freshly prepared cell membrane preparation with the [^3H]-ligand, with or without addition of compounds of the invention, separation of bound and free ligand was performed by filtration over glass fiber filters. Radioactivity on the filter was measured by scintillation counting.
(§2) The ability of the compounds to displace the radioligand [^3H]-CP-55,940 was measured at a concentration of 10 μM and values provided as [% inhibition @ 10 μM] both for the CB1 and CB2 receptor assay, The lower % inhibition is, the lower the likelihood of side effects based on CB1 or CB2 receptor inhibition is.

[3] = target: T2, human CB2 receptor (Homo sapiens, UniProt P34972); experiment: CB2 receptor affinity ([3H]-CP-55,940 displacement, HEK cell membranes); assay type: binding; conditions: displacement of [3H]-CP-55,940 at 10 μM
T2 construct: expressed in transfected cells; host or cells: human embryonic kidney (HEK) cells, Semliki Forest Virus system, membrane preparations
Experimental: as §1, with “cannabinoid CB2” for “cannabinoid”, “CB2” for “CB1”, “[^3H]-CP-55,940” for “[3H]-CP-55,940”
as §2

[4] = displacement of [3H]-CP-55,940 at 10 μM

T2 sequence (P34972 whole entry): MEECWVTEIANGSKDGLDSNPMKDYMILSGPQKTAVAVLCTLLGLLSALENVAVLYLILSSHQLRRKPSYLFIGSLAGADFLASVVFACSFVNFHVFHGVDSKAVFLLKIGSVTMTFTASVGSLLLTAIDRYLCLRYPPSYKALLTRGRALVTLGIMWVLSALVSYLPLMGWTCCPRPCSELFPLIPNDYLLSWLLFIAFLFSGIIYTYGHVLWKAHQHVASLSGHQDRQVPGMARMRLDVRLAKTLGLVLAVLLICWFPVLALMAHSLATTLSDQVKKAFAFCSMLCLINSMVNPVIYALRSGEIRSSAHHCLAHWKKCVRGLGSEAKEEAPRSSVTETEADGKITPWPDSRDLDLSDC
T1 sequence (P21554 whole entry): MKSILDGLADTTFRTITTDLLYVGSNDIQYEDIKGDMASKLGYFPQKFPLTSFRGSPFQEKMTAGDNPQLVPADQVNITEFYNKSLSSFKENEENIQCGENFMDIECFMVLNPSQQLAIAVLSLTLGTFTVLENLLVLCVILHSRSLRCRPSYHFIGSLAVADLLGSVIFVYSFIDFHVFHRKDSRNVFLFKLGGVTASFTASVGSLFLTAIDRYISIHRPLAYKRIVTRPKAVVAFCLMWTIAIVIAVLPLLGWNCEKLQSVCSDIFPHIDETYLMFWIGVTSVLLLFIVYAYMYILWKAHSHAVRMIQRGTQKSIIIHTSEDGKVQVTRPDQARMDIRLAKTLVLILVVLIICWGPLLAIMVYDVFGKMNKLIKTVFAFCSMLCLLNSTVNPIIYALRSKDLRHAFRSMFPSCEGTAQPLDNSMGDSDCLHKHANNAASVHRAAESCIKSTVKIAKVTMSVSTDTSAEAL

Structure (SMILES) | inhibition at 10 µM [3] [%] | inhibition at 10 µM [2, 4] [%] | EC50 [1] [µM] | inhibition at 10 µM [2] [%] | % increase of ABCA1 at 3 μM [1] [%@ 3 μM]
O=C(NN1CCC(O)CC1)c1cnc(OCC(F)(F)F)c(-c2ccc(Cl)cc2)c1 [Example 6, 5-(4-chlorophenyl)-N-(4-hydroxypiperidin-1-yl)-6-(2,2,2-trifluoroethoxy)-3-pyridinecarboxamide] | -9 | – | 1.11 | 11 | –
O=C(NNCC(F)(F)F)c1cnc(OCC(F)(F)F)c(-c2ccc(Cl)cc2)c1 [Example 1, 5-(4-chlorophenyl)-6-(2,2,2-trifluoroethoxy)-N′-(2,2,2-trifluoroethyl)-3-pyridinecarboxylic acid hydrazide] | 10 | 42 | – | – | >45
O=C(NN1CCC(O)CC1)c1cnc(OC2CCC2)c(-c2ccco2)c1 [Example 50, 6-cyclobutoxy-5-furan-2-yl-N-(4-hydroxy-piperidin-1-yl)-nicotinamide] | 6 | 15 | 0.16 | – | –
CN(NC(=O)c1cnc(OC2CCC2)c(C2CC2)c1)c1ccc(F)cc1 [Example 47, 6-cyclobutoxy-5-cyclopropyl-nicotinic acid N′-(4-fluoro-phenyl)-N′-methyl-hydrazide] | 7 | 25 | – | – | >45
CN(NC(=O)c1cnc(OC2CCC2)c(-c2ccco2)c1)c1ccncc1 [Example 52, 6-cyclobutoxy-5-furan-2-yl-nicotinic acid N′-methyl-N′-pyridin-4-yl-hydrazide] | 19 | 31 | 5.8 | – | –
O=C(NN1CCCC1=O)c1cnc(OCC(F)(F)F)c(C2CCCC2)c1 [Example 15, 5-cyclopentyl-N-(2-oxopyrrolidin-1-yl)-6-(2,2,2-trifluoroethoxy)-3-pyridinecarboxamide] | 12 | 13 | – | – | >45
CN(NC(=O)c1cnc(OCC(F)(F)F)c(-c2ccc(Cl)cc2)c1)c1ccc(Cl)nn1 [Example 8, 5-(4-chlorophenyl)-N′-(6-chloropyridazin-3-yl)-N′-methyl-6-(2,2,2-trifluoroethoxy)-3-pyridinecarboxylic acid hydrazide] | 18 | 38 | – | – | >45
CS(=O)(=O)N1CCN(NC(=O)c2cnc(OCC(F)(F)F)c(-c3ccc(Cl)cc3)c2)CC1 [Example 13, 5-(4-chlorophenyl)-N-(4-(methylsulfonyl)piperazin-1-yl)-6-(2,2,2-trifluoroethoxy)-3-pyridinecarboxamide] | 1 | 23 | 0.33 | – | –
CN1CCN(NC(=O)c2cnc(OCC(F)(F)F)c(-c3ccc(Cl)cc3)c2)CC1=O [Example 27, 5-(4-chlorophenyl)-N-(4-methyl-3-oxopiperazin-1-yl)-6-(2,2,2-trifluoroethoxy)-3-pyridinecarboxamide] | -11 | 25 | 2.39 | – | –
O=C(NN1CCN(CCO)CC1)c1cnc(OCC(F)(F)F)c(-c2ccc(Cl)cc2)c1 [Example 25, 5-(4-chlorophenyl)-N-(4-(2-hydroxyethyl)piperazin-1-yl)-6-(2,2,2-trifluoroethoxy)-3-pyridinecarboxamide] | -18 | 14 | – | – | >45
COC[C@@H]1CCCN1NC(=O)c1cnc(OCC(F)(F)F)c(C2CCCCC2)c1 [Example 23, 5-cyclohexyl-N—((S)-2-methoxymethyl-pyrrolidin-1-yl)-6-(2,2,2-trifluoro-ethoxy)-3-pyridinecarboxamide] | 17 | 39 | – | – | >45

The next lines start with results.

inhibition at 10 µM [3] [%] | inhibition at 10 µM [2, 4] [%] | Structure (SMILES) | EC50 [1] [µM] | inhibition at 10 µM [2] [%] | % increase of ABCA1 at 3 μM [1] [%@ 3 μM]
-8 | 47 | N#Cc1ccc(-c2cc(C(=O)NN3CCOCC3)cnc2OCC(F)(F)F)cc1 [Example 37, 5-(4-cyano-phenyl)-N-morpholin-4-yl-6-(2,2,2-trifluoro-ethoxy)-nicotinamide] | 1.32 | – | –
5 | 14 | C[C@@H]1CN(NC(=O)c2cnc(OCC(F)(F)F)c(C3CC3)c2)C[C@H](C)O1 [Example 44, 5-cyclopropyl-N-((2R,6S)-2,6-dimethyl-morpholin-4-yl)-6-(2,2,2-trifluoro-ethoxy)-nicotinamide] | – | – | >45
-6 | 37 | N#Cc1ccc(-c2cc(C(=O)NN3CCC(CCO)CC3)cnc2OCC(F)(F)F)cc1 [Example 38, 5-(4-cyano-phenyl)-N-[4-(2-hydroxy-ethyl)-piperidin-1-yl]-6-(2,2,2-trifluoro-ethoxy)-nicotinamide] | 0.15 | – | –
3 | 13 | CN(NC(=O)c1cnc(OCC(F)(F)F)c(C2CC2)c1)c1ccncc1 [Example 49, 5-cyclopropyl-6-(2,2,2-trifluoro-ethoxy)-nicotinic acid N′-methyl-N′-pyridin-4-yl-hydrazide] | – | – | >45
39 | 28 | CN(NC(=O)c1cnc(OCC2CC2)c(C2CC2)c1)c1ccccc1 [Example 43, 5-cyclopropyl-6-cyclopropylmethoxy-nicotinic acid N′-methyl-N′-phenyl-hydrazide] | 1.04 | – | –
-14 | 14 | O=C(NN1CCOCC1)c1cnc(OCC(F)(F)F)c(C2CC2)c1 [Example 32, 5-cyclopropyl-N-morpholin-4-yl-6-(2,2,2-trifluoro-ethoxy)-nicotinamide] | 1.77 | – | –
13 | 24 | CN(NC(=O)c1cnc(OCC(F)(F)F)c(C2CC2)c1)c1ccccc1 [Example 30, 5-cyclopropyl-6-(2,2,2-trifluoro-ethoxy)-nicotinic acid N′-methyl-N′-phenyl-hydrazide] | – | – | >45
-5 | -3 | CC(C)(C)OC(=O)N1CCC(c2cc(C(=O)NN3CCC(CCO)CC3)cnc2OCC(F)(F)F)CC1 [Example 39, 5-[4-(2-hydroxy-ethyl)-piperidin-1-ylcarbamoyl]-2-(2,2,2-trifluoro-ethoxy)-3′,4′,5′,6′-tetrahydro-2′H-[3,4′]bipyridinyl-1′-carboxylic acid tert-butyl ester] | 1.8 | – | –
3 | 50 | CN(NC(=O)c1cnc(OCC(F)(F)F)c(C2CCN(C(=O)OC(C)(C)C)CC2)c1)c1ccc(F)cc1 [Example 40, 5-[N′-(4-fluoro-phenyl)-N′-methyl-hydrazinocarbonyl]-2-(2,2,2-trifluoro-ethoxy)-3′,4′,5′,6′-tetrahydro-2′H-[3,4′]bipyridinyl-1′-carboxylic acid tert-butyl ester] | 0.68 | – | –
